According to paper PMC7012011, “In vitro inhibitory effects of dihydromyricetin on human liver cytochrome P450 enzymes” (Pharmaceutical Biology, 2017):

How the values were obtained:
CYP2E1 [1] = target: T1, CYP2E1 (Homo sapiens, UniProt P05181); experiment: CYP2E1 inhibition, chlorzoxazone 6-hydroxylation in pooled HLMs; type: in vitro ADME
T1 construct: CYP2E1 catalyzed reactions (chlorzoxazone 6-hydroxylation) in pooled HLM; from tissue; host or cells: pooled human liver microsomes

CYP2D6 [2] = target: T2, CYP2D6 (Homo sapiens, UniProt P10635); experiment: CYP2D6 inhibition, dextromethorphan O-demethylation in pooled HLMs; type: in vitro ADME
T2 construct: CYP2D6 catalyzed reactions (dextromethorphan O-demethylation) in pooled HLM; from tissue; host or cells: pooled human liver microsomes
T2 sequence (P10635 whole entry): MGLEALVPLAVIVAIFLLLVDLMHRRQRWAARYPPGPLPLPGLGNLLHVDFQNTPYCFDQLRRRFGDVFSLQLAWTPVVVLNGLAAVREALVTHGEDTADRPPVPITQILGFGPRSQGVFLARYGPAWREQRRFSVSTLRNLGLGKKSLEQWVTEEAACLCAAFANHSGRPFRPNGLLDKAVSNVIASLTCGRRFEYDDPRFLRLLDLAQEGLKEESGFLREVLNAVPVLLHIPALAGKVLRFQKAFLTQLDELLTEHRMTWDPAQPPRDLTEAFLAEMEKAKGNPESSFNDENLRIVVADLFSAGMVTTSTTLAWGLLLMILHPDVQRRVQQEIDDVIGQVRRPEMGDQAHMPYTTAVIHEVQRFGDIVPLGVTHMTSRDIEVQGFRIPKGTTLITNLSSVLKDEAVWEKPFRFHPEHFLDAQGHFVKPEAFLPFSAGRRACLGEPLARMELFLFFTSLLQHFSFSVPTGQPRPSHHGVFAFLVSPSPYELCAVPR
Method: (§1) All incubations were performed in triplicate, and the mean values were utilized. The typical incubation systems contained 100 mM potassium phosphate buffer (pH 7.4), NADPH-generating system (1 mM NADP^+, 10 mM glucose-6-phosphate, 1 U/mL of glucose-6-phosphate dehydrogenase, and 4 mM MgCl2), the appropriate concentration of HLM, a corresponding probe substrate and DHM (or positive inhibitor for different probe reactions) in a final volume of 200 μL.
(§2) The concentration of DHM was 100 μM, and the positive inhibitor concentrations were as follows: 10 μM furafylline for CYP1A2, 1 μM ketoconazole for CYP3A4, 10 μM tranylcypromine for CYP2A6, 50 μM clomethiazole for CYP2E1, 10 μM quinidine for CYP2D6, 10 μM sulphaphenazole for CYP2C9, 50 μM tranylcypromine for CYP2C19 and 5 μM montelukast for CYP2C8. Probe substrates, positive inhibitors (except for dextromethorphan and quinidine which were dissolved in water) and DHM were dissolved in methanol, with a final concentration of 1% (v/v), and 1% neat methanol was added to the incubations without inhibitor. There was a 3-min preincubation period (at 37 °C) before the reaction was initiated by adding a NADPH-generating system. The reaction was terminated by adding a 100 μL acetonitrile (10% trichloroacetic acid for CYP2A6) internal standard mix, and the solution was placed on ice. The mixture was centrifuged at 12,000 rpm for 10 min, and an aliquot (50 μL) of supernatant was transferred for HPLC analysis. The instrument used in this study were Agilent 1260 series instrument with DAD and FLD detector (Agilent Technologies, Palo Alto, CA), and the quantitative assay for the corresponding metabolites was performed as previously reported by us (Zhang et al. [2016]).
(§3) A 100 μM DHM was used to initially screen for its direct inhibitory effects toward different human CYP isoforms. […] The residual activity of the CYP isoforms were measured by adding different concentrations of DHM (0–100 μM), and then the IC50 values were calculated. […]
(§4) The enzyme kinetic parameters for the probe reaction were estimated from the best fit line using least-squares linear regression of the inverse substrate concentration versus the inverse velocity (Lineweaver–Burk plots), and the mean values were used to calculate Vmax and Km. Inhibition data from the experiments that were conducted using multiple compound concentrations were represented by Dixon plots, and inhibition constant (Ki) values were calculated using non-linear regression according to the following equation: v=(VmaxS)/(Km(1+I/Ki)+S), where I is the concentration of the compound, Ki is the inhibition constant, S is the concentration of the substrate and Km is the substrate concentration at half the maximum velocity (Vmax) of the reaction. […]

CYP2C8 = target: T3, CYP2C8 (Homo sapiens, UniProt P10632); experiment: CYP2C8 inhibition, paclitaxel 6α-hydroxylation in pooled HLMs; type: in vitro ADME; details: DHM 100 μM
T3 construct: from tissue; host or cells: pooled human liver microsomes
T3 sequence (P10632 1-490): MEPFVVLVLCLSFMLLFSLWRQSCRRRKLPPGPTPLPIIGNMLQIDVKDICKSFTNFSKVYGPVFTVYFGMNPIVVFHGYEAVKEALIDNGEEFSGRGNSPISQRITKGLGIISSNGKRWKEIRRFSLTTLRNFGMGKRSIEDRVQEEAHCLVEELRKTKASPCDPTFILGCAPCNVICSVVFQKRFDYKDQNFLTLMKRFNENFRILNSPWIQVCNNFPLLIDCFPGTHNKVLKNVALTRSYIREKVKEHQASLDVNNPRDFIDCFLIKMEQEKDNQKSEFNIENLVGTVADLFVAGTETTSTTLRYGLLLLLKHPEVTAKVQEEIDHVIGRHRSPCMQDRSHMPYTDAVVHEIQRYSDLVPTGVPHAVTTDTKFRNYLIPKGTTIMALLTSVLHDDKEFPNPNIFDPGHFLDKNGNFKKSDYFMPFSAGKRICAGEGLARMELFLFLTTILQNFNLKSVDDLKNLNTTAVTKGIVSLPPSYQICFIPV
Method: as §1
as §2, with “There was a 3-min preincubation period (at 37 °C) before the reaction was initiated by adding a NADPH-generating system. The reaction was terminated by adding a 100 μL acetonitrile (10% trichloroacetic acid for CYP2A6) internal standard mix, and the solution was placed on ice. The mixture was centrifuged at 12,000 rpm for 10 min, and an aliquot (50 μL) of supernatant was transferred for HPLC analysis.” left out, “[2016]). […]” for “[2016]).”

[3] = parameters: method as in Zhang et al. [2007]; Tong et al. [2015]; details: rats, oral administration of 1564.8 mg/kg of Rattan Tea decoction; ref Zhang et al. [2007]; Tong et al. [2015]; cited from earlier work
CYP3A4 [4] = target: T4, CYP3A4 (Homo sapiens, UniProt P08684); experiment: CYP3A4 inhibition, testosterone 6β-hydroxylation in pooled HLMs; type: in vitro ADME
T4 construct: CYP3A4 catalyzed reactions (testosterone 6β-hydroxylation) in pooled HLM; from tissue; host or cells: pooled human liver microsomes
T4 sequence (P08684 whole entry): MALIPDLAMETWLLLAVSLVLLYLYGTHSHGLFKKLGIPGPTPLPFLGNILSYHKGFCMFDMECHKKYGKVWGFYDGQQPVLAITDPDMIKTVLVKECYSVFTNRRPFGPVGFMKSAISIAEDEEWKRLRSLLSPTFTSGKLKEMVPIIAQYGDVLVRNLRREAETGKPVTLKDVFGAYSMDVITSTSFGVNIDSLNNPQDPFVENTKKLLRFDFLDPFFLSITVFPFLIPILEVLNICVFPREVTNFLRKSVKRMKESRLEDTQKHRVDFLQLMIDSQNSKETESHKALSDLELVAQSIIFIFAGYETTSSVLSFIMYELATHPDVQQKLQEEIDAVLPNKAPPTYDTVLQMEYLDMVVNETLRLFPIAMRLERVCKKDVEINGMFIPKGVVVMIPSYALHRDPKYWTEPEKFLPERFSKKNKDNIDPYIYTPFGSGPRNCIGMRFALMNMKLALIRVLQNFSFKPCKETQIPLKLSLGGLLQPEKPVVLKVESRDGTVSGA
Method: as §1, §2, §3, §4

CYP1A2 = target: T5, CYP1A2 (Homo sapiens, UniProt P05177); experiment: CYP1A2 inhibition, phenacetin O-deethylation in pooled HLMs; type: in vitro ADME; details: DHM 100 μM
T5 construct: from tissue; host or cells: pooled human liver microsomes
T5 sequence (P05177 1-516): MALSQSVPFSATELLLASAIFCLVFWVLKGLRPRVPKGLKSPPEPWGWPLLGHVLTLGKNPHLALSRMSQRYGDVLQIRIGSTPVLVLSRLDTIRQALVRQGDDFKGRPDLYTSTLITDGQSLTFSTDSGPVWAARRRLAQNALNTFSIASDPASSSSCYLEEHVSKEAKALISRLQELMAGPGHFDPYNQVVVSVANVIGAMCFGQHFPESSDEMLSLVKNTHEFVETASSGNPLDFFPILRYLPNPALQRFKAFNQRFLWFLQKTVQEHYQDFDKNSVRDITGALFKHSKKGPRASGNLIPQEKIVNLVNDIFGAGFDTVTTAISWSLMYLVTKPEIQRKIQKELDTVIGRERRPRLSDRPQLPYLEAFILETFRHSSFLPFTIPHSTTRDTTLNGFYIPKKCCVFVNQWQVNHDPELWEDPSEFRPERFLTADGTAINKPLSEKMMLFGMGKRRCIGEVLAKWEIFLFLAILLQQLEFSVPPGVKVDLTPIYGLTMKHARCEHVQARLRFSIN
Method: as §1
as §2, with “There was a 3-min preincubation period (at 37 °C) before the reaction was initiated by adding a NADPH-generating system. The reaction was terminated by adding a 100 μL acetonitrile (10% trichloroacetic acid for CYP2A6) internal standard mix, and the solution was placed on ice. The mixture was centrifuged at 12,000 rpm for 10 min, and an aliquot (50 μL) of supernatant was transferred for HPLC analysis.” left out, “[2016]). […]” for “[2016]).”

CYP2C19 = target: T6, CYP2C19 (Homo sapiens, UniProt P33261); experiment: CYP2C19 inhibition, S-mephenytoin 4-hydroxylation in pooled HLMs; type: in vitro ADME; details: DHM 100 μM
T6 construct: from tissue; host or cells: pooled human liver microsomes
T6 sequence (P33261 whole entry): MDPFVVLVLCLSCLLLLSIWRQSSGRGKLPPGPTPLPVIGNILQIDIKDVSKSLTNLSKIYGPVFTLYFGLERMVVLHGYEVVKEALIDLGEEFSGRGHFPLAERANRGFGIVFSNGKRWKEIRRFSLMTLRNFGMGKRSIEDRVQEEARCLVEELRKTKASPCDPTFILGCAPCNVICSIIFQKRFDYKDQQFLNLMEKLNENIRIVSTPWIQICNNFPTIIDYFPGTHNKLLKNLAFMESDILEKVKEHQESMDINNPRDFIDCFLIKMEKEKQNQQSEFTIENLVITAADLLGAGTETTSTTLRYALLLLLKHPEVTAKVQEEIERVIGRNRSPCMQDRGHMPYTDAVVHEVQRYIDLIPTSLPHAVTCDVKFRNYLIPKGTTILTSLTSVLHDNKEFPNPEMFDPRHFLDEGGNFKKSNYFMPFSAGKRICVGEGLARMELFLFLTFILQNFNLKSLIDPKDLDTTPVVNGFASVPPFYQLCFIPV
Method: as §1
as §2, with “There was a 3-min preincubation period (at 37 °C) before the reaction was initiated by adding a NADPH-generating system. The reaction was terminated by adding a 100 μL acetonitrile (10% trichloroacetic acid for CYP2A6) internal standard mix, and the solution was placed on ice. The mixture was centrifuged at 12,000 rpm for 10 min, and an aliquot (50 μL) of supernatant was transferred for HPLC analysis.” left out, “[2016]). […]” for “[2016]).”

CYP2E1 [5] = target: T1, CYP2E1; experiment: Time-dependent inhibition study of CYP2E1 in HLMs; type: in vitro ADME; details: DHM 20 μM, pre-incubation with HLM and NADPH for 30 min
Method: (§5) To determine whether DHM could inhibit the activity of CYP3A4, CYP2E1 and CYP2D6 in a time-dependent manner, DHM (20 μM) was pre-incubated with HLMs (1 mg/mL) in the presence of an NADPH-generating system for 30 min at 37 °C. After incubation, an aliquot (20 μL) was transferred to another incubation tube (a final volume of 200 μL) containing an NADPH-generating system and probe substrates whose final concentrations were approximate to Km. Then, further incubations were performed to measure the residual activity. After being incubated for 10 and 30 min, the reactions were terminated by adding a 100 μL acetonitrile internal standard mix and then placed on ice; the corresponding metabolites was determined by HPLC.

CYP3A4 [6] = target: T4, CYP3A4; experiment: Time-dependent inhibition study of CYP3A4 in HLMs; type: in vitro ADME
Method: as §5
To determine the KI and kinact values for the inactivation of CYP3A4, the incubations were conducted using higher probe substrate concentrations (approximately four-fold Km values) and various concentrations of DHM (0–50 μM) after different preincubation times (0–30 min), with a two-step incubation scheme, as described above.

CYP2A6 = target: T7, CYP2A6 (Homo sapiens, UniProt P11509); experiment: CYP2A6 inhibition, coumarin 7-hydroxylation in pooled HLMs; type: in vitro ADME; details: DHM 100 μM
T7 construct: from tissue; host or cells: pooled human liver microsomes
T7 sequence (P11509 1-494): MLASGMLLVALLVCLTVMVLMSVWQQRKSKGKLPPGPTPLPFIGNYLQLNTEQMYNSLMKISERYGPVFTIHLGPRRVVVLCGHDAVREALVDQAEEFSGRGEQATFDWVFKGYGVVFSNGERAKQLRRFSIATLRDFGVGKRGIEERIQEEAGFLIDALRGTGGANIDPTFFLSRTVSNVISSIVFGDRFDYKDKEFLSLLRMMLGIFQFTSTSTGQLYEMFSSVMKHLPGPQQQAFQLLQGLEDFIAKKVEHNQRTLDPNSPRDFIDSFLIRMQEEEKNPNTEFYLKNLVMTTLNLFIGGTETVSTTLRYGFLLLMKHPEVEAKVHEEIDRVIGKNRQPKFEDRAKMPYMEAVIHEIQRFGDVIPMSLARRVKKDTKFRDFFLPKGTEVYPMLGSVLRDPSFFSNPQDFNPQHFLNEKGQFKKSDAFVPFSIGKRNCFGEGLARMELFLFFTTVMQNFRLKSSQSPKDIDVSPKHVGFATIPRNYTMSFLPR
Method: as §1
as §2, with “There was a 3-min preincubation period (at 37 °C) before the reaction was initiated by adding a NADPH-generating system. The reaction was terminated by adding a 100 μL acetonitrile (10% trichloroacetic acid for CYP2A6) internal standard mix, and the solution was placed on ice. The mixture was centrifuged at 12,000 rpm for 10 min, and an aliquot (50 μL) of supernatant was transferred for HPLC analysis.” left out, “[2016]). […]” for “[2016]).”

CYP2D6 [7] = target: T2, CYP2D6; experiment: Time-dependent inhibition study of CYP2D6 in HLMs; type: in vitro ADME; details: DHM 20 μM, pre-incubation with HLM and NADPH for 30 min
Method: as §5

CYP2C9 = target: T8, CYP2C9 (Homo sapiens, UniProt P11712); experiment: CYP2C9 inhibition, diclofenac 4'-hydroxylation in pooled HLMs; type: in vitro ADME; details: DHM 100 μM
T8 construct: from tissue; host or cells: pooled human liver microsomes
T8 sequence (P11712 whole entry): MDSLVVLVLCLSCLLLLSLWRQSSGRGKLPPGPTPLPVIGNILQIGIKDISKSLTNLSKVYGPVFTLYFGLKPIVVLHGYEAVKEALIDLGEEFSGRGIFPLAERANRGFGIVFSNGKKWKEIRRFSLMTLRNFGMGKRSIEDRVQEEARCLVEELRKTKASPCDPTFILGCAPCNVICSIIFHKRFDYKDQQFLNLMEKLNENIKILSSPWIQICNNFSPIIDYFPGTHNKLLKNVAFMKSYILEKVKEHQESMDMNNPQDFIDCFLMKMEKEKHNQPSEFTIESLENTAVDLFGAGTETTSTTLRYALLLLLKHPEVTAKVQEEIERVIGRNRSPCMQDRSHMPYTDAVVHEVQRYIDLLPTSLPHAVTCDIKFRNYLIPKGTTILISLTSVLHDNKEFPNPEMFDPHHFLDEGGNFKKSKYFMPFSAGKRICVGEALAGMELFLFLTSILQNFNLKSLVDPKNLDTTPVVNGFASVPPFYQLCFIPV
Method: as §1
as §2, with “There was a 3-min preincubation period (at 37 °C) before the reaction was initiated by adding a NADPH-generating system. The reaction was terminated by adding a 100 μL acetonitrile (10% trichloroacetic acid for CYP2A6) internal standard mix, and the solution was placed on ice. The mixture was centrifuged at 12,000 rpm for 10 min, and an aliquot (50 μL) of supernatant was transferred for HPLC analysis.” left out, “[2016]). […]” for “[2016]).”

T1 sequence (P05181 whole entry): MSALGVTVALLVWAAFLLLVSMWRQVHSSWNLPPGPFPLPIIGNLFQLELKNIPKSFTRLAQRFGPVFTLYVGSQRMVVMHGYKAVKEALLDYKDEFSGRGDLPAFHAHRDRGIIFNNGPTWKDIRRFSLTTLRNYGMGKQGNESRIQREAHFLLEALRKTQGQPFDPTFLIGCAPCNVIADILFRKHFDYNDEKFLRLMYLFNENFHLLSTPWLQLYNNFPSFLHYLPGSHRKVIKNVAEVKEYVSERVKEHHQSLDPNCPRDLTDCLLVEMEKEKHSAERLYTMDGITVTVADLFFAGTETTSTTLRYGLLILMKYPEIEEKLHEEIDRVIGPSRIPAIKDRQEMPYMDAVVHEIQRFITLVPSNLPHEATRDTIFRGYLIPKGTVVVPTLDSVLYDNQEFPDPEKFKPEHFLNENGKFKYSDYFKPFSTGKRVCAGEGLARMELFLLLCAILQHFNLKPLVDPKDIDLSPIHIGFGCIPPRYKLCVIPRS

SMILES: O=C1c2c(O)cc(O)cc2O[C@H](c2cc(O)c(O)c(O)c2)[C@H]1O [DHM, Dihydromyricetin]
- IC50 (CYP2E1 [1]; DHM 0–100 μM, pooled HLMs): 25.7 µM
- Manner of inhibition of CYP2E1 (CYP2E1 [1]; Lineweaver–Burk plots): competitive
- inhibition at 100 μM (CYP2E1 [1]; human, pooled human liver microsomes, pH 7.4, probe chlorzoxazone (6-hydroxylation), DHM 100 μM, pooled HLMs, read-out: CYP2E1 activity inhibited to % of control activity): 74.6%
- Ki (CYP2E1 [1]; secondary Lineweaver–Burk plot, chlorzoxazone, DHM 0–50 μM, pooled HLM): 9.24 µM
- IC50 (CYP2D6 [2]; DHM 0–100 μM, pooled HLMs): 22.7 µM
- Manner of inhibition of CYP2D6 (CYP2D6 [2]; Lineweaver–Burk plots): competitive
- inhibition at 100 μM (CYP2D6 [2]; human, pooled human liver microsomes, pH 7.4, probe dextromethorphan (O-demethylation), DHM 100 μM, pooled HLMs, read-out: CYP2D6 activity inhibited to % of control activity): 85.3%
- Ki (CYP2D6 [2]; secondary Lineweaver–Burk plot, dextromethorphan 5–50 μM, DHM 0–50 μM, pooled HLM): 10.5 µM
- Inhibition of CYP2C8 activity (CYP2C8): did not inhibit
- Cmax [3]: 1700 ng/mL
- IC50 (CYP3A4 [4]; DHM 0–100 μM, pooled HLMs): 14.8 µM
- Manner of inhibition of CYP3A4 (CYP3A4 [4]; Lineweaver–Burk plots): non-competitive
- inhibition at 100 μM (CYP3A4 [4]; human, pooled human liver microsomes, pH 7.4, probe testosterone (6β-hydroxylation), DHM 100 μM, pooled HLMs, read-out: CYP3A4 activity inhibited to % of control activity): 87.7%
- Ki (CYP3A4 [4]; secondary Lineweaver–Burk plot, testosterone 20–100 μM, pooled HLM): 6.06 µM
- Inhibition of CYP1A2 activity (CYP1A2): did not inhibit
- Inhibition of CYP2C19 activity (CYP2C19): did not inhibit
- Time-dependent inhibition: activity of CYP2E1 after pre-incubation (CYP2E1 [5]): not affected
- Time-dependent inhibition: activity of CYP3A4 after pre-incubation (CYP3A4 [6]; DHM 20 μM, pre-incubation with HLM and NADPH for 30 min): decreased with the incubation time
- KI (inactivation) (CYP3A4 [6]; human, human liver microsomes, DHM 0–50 μM, preincubation 0–30 min, non-linear regression, HLM): 12.2 µM
- kinact (CYP3A4 [6]; human, human liver microsomes, DHM 0–50 μM, preincubation 0–30 min, non-linear regression, HLM, read-out: Kinact for inactivation of CYP3A4 (converted)): 0.00095 s⁻¹
- CYP3A4 inactivated each minute (CYP3A4 [6]; saturating concentration of DHM incubated with HLM, implied by Kinact): approximately 5.7%
- Inhibition of CYP2A6 activity (CYP2A6): did not inhibit
- Time-dependent inhibition: activity of CYP2D6 after pre-incubation (CYP2D6 [7]): not affected
- Inhibition of CYP2C9 activity (CYP2C9): did not inhibit
